Experimental data taken from ChEMBL document CHEMBL5465560, “Selectivity Literature for EUbOPEN Chemogenomic Library” (2024).
One block for each compound: values may come before it.

Assays:
[1] = molecular target: T1, cGMP-dependent protein kinase 1 (Homo sapiens) (UniProt Q13976); experiment: Selectivity interaction (KinomeScan (DiscoverX)) EUB0000655a PRKG1; conditions: at 10 µM
T1 sequence (whole entry): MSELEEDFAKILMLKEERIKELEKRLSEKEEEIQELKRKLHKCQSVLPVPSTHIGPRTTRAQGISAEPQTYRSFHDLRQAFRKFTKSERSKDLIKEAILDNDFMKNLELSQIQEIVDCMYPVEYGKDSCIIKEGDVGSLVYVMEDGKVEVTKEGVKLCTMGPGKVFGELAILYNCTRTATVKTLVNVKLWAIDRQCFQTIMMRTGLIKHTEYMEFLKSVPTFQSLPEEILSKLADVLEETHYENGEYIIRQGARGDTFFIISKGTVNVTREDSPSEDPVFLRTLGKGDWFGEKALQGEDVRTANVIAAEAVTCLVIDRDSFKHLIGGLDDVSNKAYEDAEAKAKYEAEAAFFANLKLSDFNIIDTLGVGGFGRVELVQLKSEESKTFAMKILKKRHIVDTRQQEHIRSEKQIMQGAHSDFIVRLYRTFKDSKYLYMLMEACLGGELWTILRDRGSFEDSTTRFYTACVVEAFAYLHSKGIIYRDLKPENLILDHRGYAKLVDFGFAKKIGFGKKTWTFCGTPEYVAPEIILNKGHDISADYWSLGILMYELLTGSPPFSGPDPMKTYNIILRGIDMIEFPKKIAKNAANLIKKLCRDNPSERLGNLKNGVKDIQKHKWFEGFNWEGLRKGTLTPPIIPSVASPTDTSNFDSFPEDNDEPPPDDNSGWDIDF

[2] = molecular target: Tyrosine-protein kinase Lck (Homo sapiens, UniProt P06239); experiment: Selectivity interaction (KinomeScan (DiscoverX)) EUB0000045b LCK
Chain of Tyrosine-protein kinase Lck (P06239 2-509 limits assumed): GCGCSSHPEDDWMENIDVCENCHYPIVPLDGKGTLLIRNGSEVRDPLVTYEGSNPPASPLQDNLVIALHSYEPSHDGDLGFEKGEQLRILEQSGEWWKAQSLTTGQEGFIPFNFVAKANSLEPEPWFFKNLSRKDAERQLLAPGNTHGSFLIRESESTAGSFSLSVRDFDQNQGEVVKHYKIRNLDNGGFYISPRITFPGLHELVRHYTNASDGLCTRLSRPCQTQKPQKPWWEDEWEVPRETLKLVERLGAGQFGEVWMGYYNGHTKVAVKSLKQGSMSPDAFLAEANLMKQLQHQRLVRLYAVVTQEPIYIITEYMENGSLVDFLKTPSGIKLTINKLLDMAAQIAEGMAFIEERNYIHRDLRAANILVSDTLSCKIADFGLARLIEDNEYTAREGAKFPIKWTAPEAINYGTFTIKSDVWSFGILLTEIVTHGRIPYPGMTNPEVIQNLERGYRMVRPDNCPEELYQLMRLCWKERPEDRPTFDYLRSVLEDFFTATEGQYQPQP

Focal adhesion kinase 1 = Focal adhesion kinase 1 (Homo sapiens, UniProt Q05397); experiment: Selectivity interaction (ActivX KiNativ screen (kinase selectivity in THP-1 cell lysates)) EUB0000639a PTK2; format: subcellular; conditions: lysate, at 1 µM
Chain of Focal adhesion kinase 1 (Q05397 2-1052 limits assumed): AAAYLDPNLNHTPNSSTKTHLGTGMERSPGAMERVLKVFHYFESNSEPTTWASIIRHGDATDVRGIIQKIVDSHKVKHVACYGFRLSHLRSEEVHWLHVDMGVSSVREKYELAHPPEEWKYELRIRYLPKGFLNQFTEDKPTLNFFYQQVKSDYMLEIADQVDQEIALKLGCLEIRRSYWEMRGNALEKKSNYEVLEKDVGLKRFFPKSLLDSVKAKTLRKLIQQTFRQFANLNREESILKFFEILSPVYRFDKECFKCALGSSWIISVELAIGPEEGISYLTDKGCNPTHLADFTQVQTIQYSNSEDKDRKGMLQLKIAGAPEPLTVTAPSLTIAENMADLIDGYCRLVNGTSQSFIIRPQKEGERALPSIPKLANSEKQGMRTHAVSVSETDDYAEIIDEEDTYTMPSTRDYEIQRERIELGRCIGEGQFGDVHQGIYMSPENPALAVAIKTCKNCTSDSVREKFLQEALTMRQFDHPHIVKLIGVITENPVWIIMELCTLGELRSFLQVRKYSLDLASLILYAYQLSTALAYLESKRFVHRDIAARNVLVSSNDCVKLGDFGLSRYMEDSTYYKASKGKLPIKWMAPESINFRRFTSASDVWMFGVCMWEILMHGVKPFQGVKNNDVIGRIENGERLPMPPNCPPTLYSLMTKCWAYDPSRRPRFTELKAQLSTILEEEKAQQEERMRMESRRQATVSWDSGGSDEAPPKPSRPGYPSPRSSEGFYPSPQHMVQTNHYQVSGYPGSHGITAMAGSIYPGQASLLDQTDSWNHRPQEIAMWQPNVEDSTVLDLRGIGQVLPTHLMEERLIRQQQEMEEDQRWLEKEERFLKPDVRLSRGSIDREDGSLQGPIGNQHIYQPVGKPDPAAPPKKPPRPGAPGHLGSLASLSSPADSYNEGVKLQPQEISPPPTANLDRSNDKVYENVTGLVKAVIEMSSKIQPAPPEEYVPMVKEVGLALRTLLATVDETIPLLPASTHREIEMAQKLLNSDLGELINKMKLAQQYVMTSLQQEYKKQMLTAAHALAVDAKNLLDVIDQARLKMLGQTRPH

[3] = molecular target: Bone morphogenetic protein receptor type-1A (Homo sapiens, UniProt P36894); experiment: Selectivity interaction (KinomeScan (DiscoverX)) EUB0000229b BMPR1A; conditions: at 10 µM
Chain of Bone morphogenetic protein receptor type-1A (P36894 whole entry): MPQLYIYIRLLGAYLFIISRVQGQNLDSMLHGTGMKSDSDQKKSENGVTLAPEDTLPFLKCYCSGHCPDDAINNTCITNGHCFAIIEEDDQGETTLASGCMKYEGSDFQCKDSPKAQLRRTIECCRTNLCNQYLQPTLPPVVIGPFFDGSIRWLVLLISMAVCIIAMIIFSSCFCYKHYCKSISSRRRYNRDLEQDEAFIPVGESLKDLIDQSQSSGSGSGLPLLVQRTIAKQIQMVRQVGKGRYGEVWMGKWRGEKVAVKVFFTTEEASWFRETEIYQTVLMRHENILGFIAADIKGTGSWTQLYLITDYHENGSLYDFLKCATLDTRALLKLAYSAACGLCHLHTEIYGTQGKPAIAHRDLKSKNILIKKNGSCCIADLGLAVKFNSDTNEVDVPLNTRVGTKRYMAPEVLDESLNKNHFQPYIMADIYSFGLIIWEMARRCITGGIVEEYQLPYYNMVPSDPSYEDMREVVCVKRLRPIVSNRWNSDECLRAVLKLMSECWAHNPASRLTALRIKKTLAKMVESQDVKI

[4] = molecular target: T2, Mitogen-activated protein kinase kinase kinase 19 (Homo sapiens) (UniProt Q56UN5); experiment: Selectivity interaction (KinomeScan (DiscoverX)) EUB0001550a MAP3K19; conditions: at 1 µM
T2 sequence (whole entry): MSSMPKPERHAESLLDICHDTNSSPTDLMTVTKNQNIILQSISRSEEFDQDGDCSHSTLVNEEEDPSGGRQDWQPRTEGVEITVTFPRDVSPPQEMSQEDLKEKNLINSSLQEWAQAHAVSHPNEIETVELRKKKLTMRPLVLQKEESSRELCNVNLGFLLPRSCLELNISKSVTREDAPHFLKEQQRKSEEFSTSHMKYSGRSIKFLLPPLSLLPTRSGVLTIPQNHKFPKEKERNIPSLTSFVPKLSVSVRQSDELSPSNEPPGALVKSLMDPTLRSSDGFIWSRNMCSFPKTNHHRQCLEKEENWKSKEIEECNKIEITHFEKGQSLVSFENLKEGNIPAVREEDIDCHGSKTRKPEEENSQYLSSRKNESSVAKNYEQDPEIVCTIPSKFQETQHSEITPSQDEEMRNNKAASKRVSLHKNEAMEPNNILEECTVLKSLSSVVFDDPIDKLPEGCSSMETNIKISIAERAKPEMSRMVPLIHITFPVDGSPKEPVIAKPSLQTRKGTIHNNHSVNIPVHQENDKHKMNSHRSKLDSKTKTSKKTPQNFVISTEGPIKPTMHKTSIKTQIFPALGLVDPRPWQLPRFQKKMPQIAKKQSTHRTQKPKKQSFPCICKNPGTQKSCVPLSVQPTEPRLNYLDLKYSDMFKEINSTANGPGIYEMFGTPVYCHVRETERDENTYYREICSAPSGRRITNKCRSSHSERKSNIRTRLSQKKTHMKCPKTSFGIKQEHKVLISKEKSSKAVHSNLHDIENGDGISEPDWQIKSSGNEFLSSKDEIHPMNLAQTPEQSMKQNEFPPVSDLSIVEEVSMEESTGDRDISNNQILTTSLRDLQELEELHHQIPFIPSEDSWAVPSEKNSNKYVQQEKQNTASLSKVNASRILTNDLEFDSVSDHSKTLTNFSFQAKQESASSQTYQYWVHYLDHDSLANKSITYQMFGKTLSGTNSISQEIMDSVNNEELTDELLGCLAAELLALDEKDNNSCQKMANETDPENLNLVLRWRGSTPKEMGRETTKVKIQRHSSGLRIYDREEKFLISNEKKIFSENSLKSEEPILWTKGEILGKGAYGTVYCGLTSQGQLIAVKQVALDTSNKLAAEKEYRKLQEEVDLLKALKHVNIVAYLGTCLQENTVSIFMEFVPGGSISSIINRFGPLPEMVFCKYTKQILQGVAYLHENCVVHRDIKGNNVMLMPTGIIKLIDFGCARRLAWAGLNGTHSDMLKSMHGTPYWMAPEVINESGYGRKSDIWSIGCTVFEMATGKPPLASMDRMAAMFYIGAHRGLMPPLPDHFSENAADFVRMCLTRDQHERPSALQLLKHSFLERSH

SMILES: CN(C)CCOc1ccc(-c2nc(-c3ccncc3)c(-c3ccc4c(c3)CC/C4=N\O)[nH]2)cc1
- % of control [1]: 89%

SMILES: C=CC(=O)Nc1cc(-n2c(=O)ccc3cnc4ccc(-c5ccc(NS(C)(=O)=O)cc5)cc4c32)ccc1C
- % of control ([2]; at 1 µM): 89%
- % of control ([2]; at 10 µM): 80%

- % of inhibition (Focal adhesion kinase 1): -38.6%
SMILES: CC[C@@H]1[C@H](F)C(=O)N[C@@H]1COc1nccc2cc(C(N)=O)c(OC)cc12 [ZIMLOVISERTIB]

SMILES: COc1cc(N(C)c2ccnc3ccc(C(F)(F)F)cc23)cc(OC)c1OC
- % binding [3]: 76%

- % of control [4]: 9.9%
SMILES: CN(C)CC#Cc1ccc2[nH]c3c(c2c1)-c1nc(N)ncc1CCC3
